For series [1] the following is noted: humans, within 24 h, primarily through kidneys; cited from earlier work.
The next series relates to CXCR4 receptor. As to conditions: Cu-bound vs unbound AMD3100; cited from earlier work.
For series [2] the following is noted: no reference given; cited from earlier work.
For series [3], the system named is U87 and U87-stb-CXCR4 glioblastoma xenografts. Briefly: Ex vivo biodistribution in subcutaneous brain tumor model. Details: species or system NOD/SCID mice. The settings on record: 740 kBq, 90 min after injection.
Series [4] shares this test system. The class given is in vivo. The settings on record: whole body image at 90 min.

As for `c1cc(CN2CCCNCCNCCCNCC2)ccc1CN1CCCNCCNCCCNCC1` [AMD3100], in series [1], the “drug eliminated as parent” value is given as roughly 70%. For the same compound, the “increase of affinity to the CXCR4 receptor by Cu bound to the cyclam” value with CXCR4 receptor was 6 fold. In series [2], the plasma protein bound is on record as roughly 58%.
On to `[Cl][64Cu][Cl]` [[^64Cu]CuCl2], for which the “radioactivity distribution (ex vivo biodistribution)” value in series [3] was “uniform”. In addition, the “distribution of radiotracer (PET)” value in series [4] is listed as “uniform distribution”.

The values are drawn from publication PMC2874192 (Cancer research, 2010).
